# Test system: pre-cultured PBMCs (NSP12-specific T cells)
# Experiment: IFN-γ ELISpot with single 15-mer peptides after 11–13 days in vitro peptide-pool T-cell expansion
# Type: cell-based, human
# Conditions: for peptide-specific T-cell response, donor HH-N12-18, post COVID-19 / peptide-specific T-cell response, donor HH-N12-34, post COVID-19 / peptide-specific T-cell response, donor HH-N12-35, post COVID-19 / peptide-specific T-cell response, donor HH-N12-36, post COVID-19 / peptide-specific T-cell response, donor HH-N12-37, post COVID-19 / peptide-specific response, donor HH-N12-18, post COVID-19 / peptide-specific response, donor HH-N12-34, post COVID-19 / peptide-specific response, donor HH-N12-35, post COVID-19 / peptide-specific response, donor HH-N12-36, post COVID-19 / peptide-specific response, donor HH-N12-37, post COVID-19: sample post COVID-19; for peptide-specific T-cell response, donor HH-N12-18, post COVID-19 / peptide-specific T-cell response, donor HH-N12-18, pre COVID-19 / peptide-specific T-cell response, donor HH-N12-34, post COVID-19 / peptide-specific T-cell response, donor HH-N12-34, pre COVID-19 / peptide-specific T-cell response, donor HH-N12-35, post COVID-19 / peptide-specific T-cell response, donor HH-N12-35, pre COVID-19 / peptide-specific T-cell response, donor HH-N12-36, post COVID-19 / peptide-specific T-cell response, donor HH-N12-36, pre COVID-19 / peptide-specific T-cell response, donor HH-N12-37, post COVID-19 / peptide-specific T-cell response, donor HH-N12-37, pre COVID-19: single NSP12 15-mer peptide, 0 = no response; for peptide-specific T-cell response, donor HH-N12-18, pre COVID-19 / peptide-specific T-cell response, donor HH-N12-34, pre COVID-19 / peptide-specific T-cell response, donor HH-N12-35, pre COVID-19 / peptide-specific T-cell response, donor HH-N12-36, pre COVID-19 / peptide-specific T-cell response, donor HH-N12-37, pre COVID-19 / peptide-specific response, donor HH-N12-18, pre COVID-19 / peptide-specific response, donor HH-N12-34, pre COVID-19 / peptide-specific response, donor HH-N12-35, pre COVID-19 / peptide-specific response, donor HH-N12-36, pre COVID-19 / peptide-specific response, donor HH-N12-37, pre COVID-19: sample pre COVID-19; for peptide-specific response, donor HH-N12-18, post COVID-19 / peptide-specific response, donor HH-N12-18, pre COVID-19 / peptide-specific response, donor HH-N12-34, post COVID-19 / peptide-specific response, donor HH-N12-34, pre COVID-19 / peptide-specific response, donor HH-N12-35, post COVID-19 / peptide-specific response, donor HH-N12-35, pre COVID-19 / peptide-specific response, donor HH-N12-36, post COVID-19 / peptide-specific response, donor HH-N12-36, pre COVID-19 / peptide-specific response, donor HH-N12-37, post COVID-19 / peptide-specific response, donor HH-N12-37, pre COVID-19: single NSP12 15-mer peptides
sequence,measurement,value
ASQGLVASIKNFKSV [compound 155],"peptide-specific T-cell response, donor HH-N12-18, post COVID-19",0
same,"peptide-specific T-cell response, donor HH-N12-18, pre COVID-19",0
same,"peptide-specific T-cell response, donor HH-N12-34, post COVID-19",0
same,"peptide-specific T-cell response, donor HH-N12-34, pre COVID-19",0
same,"peptide-specific T-cell response, donor HH-N12-35, post COVID-19",0
same,"peptide-specific T-cell response, donor HH-N12-35, pre COVID-19",0
same,"peptide-specific T-cell response, donor HH-N12-36, post COVID-19",0
same,"peptide-specific T-cell response, donor HH-N12-36, pre COVID-19",0
same,"peptide-specific T-cell response, donor HH-N12-37, post COVID-19",0
same,"peptide-specific T-cell response, donor HH-N12-37, pre COVID-19",0
DAVVCFNSTYASQGL [compound 153],"peptide-specific T-cell response, donor HH-N12-18, post COVID-19",0
same,"peptide-specific T-cell response, donor HH-N12-18, pre COVID-19",0
same,"peptide-specific T-cell response, donor HH-N12-34, post COVID-19",0
same,"peptide-specific T-cell response, donor HH-N12-34, pre COVID-19",0
same,"peptide-specific T-cell response, donor HH-N12-35, post COVID-19",0
same,"peptide-specific T-cell response, donor HH-N12-35, pre COVID-19",0
same,"peptide-specific T-cell response, donor HH-N12-36, post COVID-19",0
same,"peptide-specific T-cell response, donor HH-N12-36, pre COVID-19",0
same,"peptide-specific T-cell response, donor HH-N12-37, post COVID-19",0
same,"peptide-specific T-cell response, donor HH-N12-37, pre COVID-19",0
DFIQTTPGSGVPVVD [compound 45],"peptide-specific response, donor HH-N12-18, post COVID-19",0
same,"peptide-specific response, donor HH-N12-18, pre COVID-19",0
same,"peptide-specific response, donor HH-N12-34, post COVID-19",0
same,"peptide-specific response, donor HH-N12-34, pre COVID-19",0.017
same,"peptide-specific response, donor HH-N12-35, post COVID-19",0
same,"peptide-specific response, donor HH-N12-35, pre COVID-19",0
same,"peptide-specific response, donor HH-N12-36, post COVID-19",0
same,"peptide-specific response, donor HH-N12-36, pre COVID-19",0
same,"peptide-specific response, donor HH-N12-37, post COVID-19",0
same,"peptide-specific response, donor HH-N12-37, pre COVID-19",0
DIYNDKVAGFAKFLK [compound 8],"peptide-specific response, donor HH-N12-18, post COVID-19",0
same,"peptide-specific response, donor HH-N12-18, pre COVID-19",0
same,"peptide-specific response, donor HH-N12-34, post COVID-19",0
same,"peptide-specific response, donor HH-N12-34, pre COVID-19",0
same,"peptide-specific response, donor HH-N12-35, post COVID-19",0
same,"peptide-specific response, donor HH-N12-35, pre COVID-19",0
same,"peptide-specific response, donor HH-N12-36, post COVID-19",0
same,"peptide-specific response, donor HH-N12-36, pre COVID-19",0
same,"peptide-specific response, donor HH-N12-37, post COVID-19",0
same,"peptide-specific response, donor HH-N12-37, pre COVID-19",0
DLNGNWYDFGDFIQT [compound 43],"peptide-specific response, donor HH-N12-18, post COVID-19",0.035
same,"peptide-specific response, donor HH-N12-18, pre COVID-19",0
same,"peptide-specific response, donor HH-N12-34, post COVID-19",0
same,"peptide-specific response, donor HH-N12-34, pre COVID-19",0
same,"peptide-specific response, donor HH-N12-35, post COVID-19",0
same,"peptide-specific response, donor HH-N12-35, pre COVID-19",0
same,"peptide-specific response, donor HH-N12-36, post COVID-19",0
same,"peptide-specific response, donor HH-N12-36, pre COVID-19",0.028
same,"peptide-specific response, donor HH-N12-37, post COVID-19",0
same,"peptide-specific response, donor HH-N12-37, pre COVID-19",0
DQTYHPNCVNCLDDR [compound 59],"peptide-specific response, donor HH-N12-18, post COVID-19",0
same,"peptide-specific response, donor HH-N12-18, pre COVID-19",0
same,"peptide-specific response, donor HH-N12-34, post COVID-19",0
same,"peptide-specific response, donor HH-N12-34, pre COVID-19",0
same,"peptide-specific response, donor HH-N12-35, post COVID-19",0
same,"peptide-specific response, donor HH-N12-35, pre COVID-19",0
same,"peptide-specific response, donor HH-N12-36, post COVID-19",0
same,"peptide-specific response, donor HH-N12-36, pre COVID-19",0.047
same,"peptide-specific response, donor HH-N12-37, post COVID-19",0
same,"peptide-specific response, donor HH-N12-37, pre COVID-19",0
EDDNLIDSYFVVKRH [compound 13],"peptide-specific response, donor HH-N12-18, post COVID-19",0
same,"peptide-specific response, donor HH-N12-18, pre COVID-19",0
same,"peptide-specific response, donor HH-N12-34, post COVID-19",0
same,"peptide-specific response, donor HH-N12-34, pre COVID-19",0
same,"peptide-specific response, donor HH-N12-35, post COVID-19",0
same,"peptide-specific response, donor HH-N12-35, pre COVID-19",0
same,"peptide-specific response, donor HH-N12-36, post COVID-19",0
same,"peptide-specific response, donor HH-N12-36, pre COVID-19",0
same,"peptide-specific response, donor HH-N12-37, post COVID-19",0
same,"peptide-specific response, donor HH-N12-37, pre COVID-19",0

# Reference: PMC10196118, “Evidence for broad cross-reactivity of the SARS-CoV-2 NSP12-directed CD4^+ T-cell response with pre-primed responses directed against common cold coronaviruses” (Frontiers in Immunology, 2023)
